Laboratory results from patent publication US4257941A, “Polycyclic nitrogen-containing compounds” (BASF Aktiengesellschaft, priority 1976, dated 1981).

Test system: lawns
Experiment: Long-term action on lawns (Example 14)
Type: in vivo
Conditions: for First cutting, green weight relative / First cutting, growth height relative / Second cutting, green weight relative / Second cutting, growth height relative / Third cutting, green weight relative: control 100

Row | Compound | First cutting, green weight (0.5 kg/ha) [g] | First cutting, growth height (0.5 kg/ha) [cm] | Second cutting, green weight (0.5 kg/ha) [g] | Second cutting, growth height (0.5 kg/ha) [cm] | Third cutting, green weight (0.5 kg/ha) [g] | First cutting, green weight relative (0.5 kg/ha) | First cutting, growth height relative (0.5 kg/ha) | Second cutting, green weight relative (0.5 kg/ha) | Second cutting, growth height relative (0.5 kg/ha) | Third cutting, green weight relative (0.5 kg/ha) | First cutting, green weight (1.0 kg/ha) [g] | First cutting, growth height (1.0 kg/ha) [cm] | Second cutting, green weight (1.0 kg/ha) [g] | Second cutting, growth height (1.0 kg/ha) [cm] | Third cutting, green weight (1.0 kg/ha) [g] | First cutting, green weight relative (1.0 kg/ha) | First cutting, growth height relative (1.0 kg/ha) | Second cutting, green weight relative (1.0 kg/ha) | Second cutting, growth height relative (1.0 kg/ha) | Third cutting, green weight relative (1.0 kg/ha) | other results
1 | Brc1ccc(N2N=NC3C4CC(C5N=NC45)C32)cc1 (stereo not drawn) [drawing 380] | 25.5 | 14.5 | 27.8 | 14.5 | 16.5 | 72.2 | 80.6 | 104.1 | 98.6 | 108.6 | 24.4 | 12.5 | 25.1 | 11.5 | 16.5 | 69.1 | 69.5 | 94.0 | 78.2 | 108.6 | First cutting, green weight (2.0 kg/ha): 22.0 g; First cutting, growth height (2.0 kg/ha): 11.0 cm; Second cutting, green weight (2.0 kg/ha): 18.7 g; Second cutting, growth height (2.0 kg/ha): 8.0 cm; Third cutting, green weight (2.0 kg/ha): 14.0 g; First cutting, green weight relative (2.0 kg/ha): 62.3; First cutting, growth height relative (2.0 kg/ha): 61.1; Second cutting, green weight relative (2.0 kg/ha): 70.0; Second cutting, growth height relative (2.0 kg/ha): 54.4; Third cutting, green weight relative (2.0 kg/ha): 92.1; First cutting, green weight (4.0 kg/ha): 16.5 g; First cutting, growth height (4.0 kg/ha): 10.5 cm; Second cutting, green weight (4.0 kg/ha): 13.2 g; Second cutting, growth height (4.0 kg/ha): 7.0 cm; Third cutting, green weight (4.0 kg/ha): 10.3 g; First cutting, green weight relative (4.0 kg/ha): 46.7; First cutting, growth height relative (4.0 kg/ha): 58.3; Second cutting, green weight relative (4.0 kg/ha): 49.4; Second cutting, growth height relative (4.0 kg/ha): 47.6; Third cutting, green weight relative (4.0 kg/ha): 67.8
2 | Clc1ccc(N2N=NC3C4CC(C5NNC45)C32)cc1 (stereo not drawn) [drawing 381] | 28.8 | 16.5 | 27.2 | 12.5 | 17.2 | 81.6 | 91.7 | 101.9 | 85.0 | 113.2 | 21.3 | 13.5 | 20.5 | 9.0 | 15.1 | 60.3 | 75.0 | 76.8 | 61.2 | 99.3 | First cutting, green weight (2.0 kg/ha): 17.2 g; First cutting, growth height (2.0 kg/ha): 11.5 cm; Second cutting, green weight (2.0 kg/ha): 16.2 g; Second cutting, growth height (2.0 kg/ha): 7.5 cm; Third cutting, green weight (2.0 kg/ha): 12.5 g; First cutting, green weight relative (2.0 kg/ha): 48.7; First cutting, growth height relative (2.0 kg/ha): 63.9; Second cutting, green weight relative (2.0 kg/ha): 60.7; Second cutting, growth height relative (2.0 kg/ha): 51.0; Third cutting, green weight relative (2.0 kg/ha): 82.2; First cutting, green weight (4.0 kg/ha): 13.9 g; First cutting, growth height (4.0 kg/ha): 9.0 cm; Second cutting, green weight (4.0 kg/ha): 10.2 g; Second cutting, growth height (4.0 kg/ha): 5.0 cm; Third cutting, green weight (4.0 kg/ha): 9.8 g; First cutting, green weight relative (4.0 kg/ha): 39.4; First cutting, growth height relative (4.0 kg/ha): 50.0; Second cutting, green weight relative (4.0 kg/ha): 38.2; Second cutting, growth height relative (4.0 kg/ha): 34.0; Third cutting, green weight relative (4.0 kg/ha): 64.5
3 | c1cc2sncc2cc1N1N=NC2C3CC(C4N=NC34)C21 (stereo not drawn) [drawing 382] | 31.8 | 18.5 | 28.8 | 14.0 | 15.5 | 90.1 | 102.8 | 107.9 | 95.2 | 102.0 | 27.1 | 16.5 | 25.8 | 13.0 | 15.3 | 76.8 | 91.7 | 96.6 | 88.4 | 100.7 | First cutting, green weight (2.0 kg/ha): 20.3 g; First cutting, growth height (2.0 kg/ha): 14.5 cm; Second cutting, green weight (2.0 kg/ha): 19.1 g; Second cutting, growth height (2.0 kg/ha): 9.0 cm; Third cutting, green weight (2.0 kg/ha): 12.8 g; First cutting, green weight relative (2.0 kg/ha): 57.5; First cutting, growth height relative (2.0 kg/ha): 80.6; Second cutting, green weight relative (2.0 kg/ha): 71.5; Second cutting, growth height relative (2.0 kg/ha): 61.2; Third cutting, green weight relative (2.0 kg/ha): 84.2; First cutting, green weight (4.0 kg/ha): 19.5 g; First cutting, growth height (4.0 kg/ha): 12.5 cm; Second cutting, green weight (4.0 kg/ha): 16.8 g; Second cutting, growth height (4.0 kg/ha): 7.0 cm; Third cutting, green weight (4.0 kg/ha): 12.8 g; First cutting, green weight relative (4.0 kg/ha): 55.2; First cutting, growth height relative (4.0 kg/ha): 69.5; Second cutting, green weight relative (4.0 kg/ha): 62.9; Second cutting, growth height relative (4.0 kg/ha): 47.6; Third cutting, green weight relative (4.0 kg/ha): 84.2
